Test results as given in patent publication US7973219B2, “Method for producing transgenic plants resistant to weed control compounds which disrupt the porphyrin pathways of plants” (Sumitomo Chemical Company, Limited, priority 1998, dated 2011).

Experiments:
[1] = system: E. coli BT3/pACYCSP+pYAGF strain; experiment: Growth of E. coli BT3/pACYCSP+pYAGF with herbicidal compound; assay type: cell-based, Escherichia coli; details: 1 ppm, 18 hours culture, Table 15
Description: According to the description of Gibson, L. C. D. et al., Proc. Natl. Acad. Sci. USA, 92; p 1941 (1995), the DNA fragment containing bchH gene prepared in Example 1 was digested with the restriction enzymes NdeI and BglII. The resultant DNA fragment was inserted between NdeI restriction site and BamHI restriction site of expression vector pET11a (manufactured by Stratagene) to obtain plasmid pETBCH (FIG. 1). This plasmid pETBCH was introduced into E. coli BL21(DE3) strain competent cells (manufactured by Stratagene) according to the manual attached to the competent cells to obtain E. coli BL21(DE3)/pETBCH strain. The strain was inoculated into 1.5 ml LB liquid culture medium (1% tryptone, 0.5% yeast extract, 0.5% NaCl) containing 100 μg/ml ampicillin in a tube (14×10 mm), and the tube was covered with aluminum foil (hereinafter referred to as dark conditions), cultured with shaking at 37° C. under light of fluorescent lamp (about 8000 lux). When the absorbance at 600 nm of the liquid culture medium became about 0.6, isopropyl β-D-thiogalactopyranoside (IPTG) was added to the liquid culture medium so that the final concentration was 0.4 mM, and the culture was continued for about additional 20 hours. […]

[2] = system: E. coli BT3/pACYCSP+pTCHLH1 strain; experiment: Growth of E. coli BT3/pACYCSP+pTCHLH1 (variant tobacco chelatase subunit) with herbicidal compound; assay type: cell-based, Escherichia coli; details: 18 hours culture, Table 6
Description: According to the description of Gibson, L. C. D. et al., Proc. Natl. Acad. Sci. USA, 92; p 1941 (1995), the DNA fragment containing bchH gene prepared in Example 1 was digested with the restriction enzymes NdeI and BglII. The resultant DNA fragment was inserted between NdeI restriction site and BamHI restriction site of expression vector pET11a (manufactured by Stratagene) to obtain plasmid pETBCH (FIG. 1). This plasmid pETBCH was introduced into E. coli BL21(DE3) strain competent cells (manufactured by Stratagene) according to the manual attached to the competent cells to obtain E. coli BL21(DE3)/pETBCH strain. The strain was inoculated into 1.5 ml LB liquid culture medium (1% tryptone, 0.5% yeast extract, 0.5% NaCl) containing 100 μg/ml ampicillin in a tube (14×10 mm), and the tube was covered with aluminum foil (hereinafter referred to as dark conditions), cultured with shaking at 37° C. under light of fluorescent lamp (about 8000 lux). When the absorbance at 600 nm of the liquid culture medium became about 0.6, isopropyl β-D-thiogalactopyranoside (IPTG) was added to the liquid culture medium so that the final concentration was 0.4 mM, and the culture was continued for about additional 20 hours. […] In contrast to this, when E. coli BL21(DE3)/pETBCH strain was cultured according to the same manner (with IPTG) except that the tube was not covered with aluminum foil (hereinafter referred to as light conditions), E. coli grew and turned red as above.
The plasmid pTCHLH1 and pCR2.1 prepared in Example 7 were introduced into E. coli BT3/pACYCSP strain prepared in Example 3, respectively according to the method described in Hanahan, D. J., Mol. Biol., 166; p 557 (1983). E. coli BT3/pACYCSP+pTCHLH1 strain bearing plasmids pACYCSP and pTCHLH1, and E. coli BT3/pACYCSP+pCR2.1 strain bearing plasmids pACYCSP and pCR2.1 were obtained by culturing the above strains in YPT medium containing 100 μg/ml ampicillin, 15 μg/ml chloramphenicol and 50 μg/ml kanamycin, respectively.
These E. coli strains were inoculated into YPT medium containing 10 or 1 ppm of the PPO inhibitory-type herbicidal compound represented by Structure 8, 100 μg/ml ampicillin, 15 μg/ml chloramphenicol, 50 μg/ml kanamycin, 10 μg/ml hemin and 50 μg/ml aminolevulinic acid, cultured under dark conditions or light conditions according to the same manner as in Example 2. Then, 18 hours after initiation of culture, the absorbance of the liquid culture medium was measured at 600 nm. By taking the absorbance of the medium without the herbicidal compound as 1, the relative value of the absorbance of the medium containing the herbicidal compound was calculated.

## C#CCOc1cc(N2C(=O)C3=C(CCCC3)C2=O)c(F)cc1Cl [Structure 8]
[1]; in the dark
  Relative absorbance: 0.96
[1]; in the light
  Relative absorbance: 0.62
[2]; in the dark, 1 ppm
  Relative absorbance: 0.93
[2]; in the dark, 10 ppm
  Relative absorbance: 0.92
[2]; in the light, 1 ppm
  Relative absorbance: 0.89
[2]; in the light, 10 ppm
  Relative absorbance: 0.69
